According to patent US20230028441A1, “NOVEL HETEROARYL-TRIAZOLE COMPOUNDS AS PESTICIDES” (Bayer Aktiengesellschaft, priority 2019, published 2023):

Columns and labels:
Type in all cases: in vivo
[1] = system: green peach aphid (Myzus persicae); assay: Myzus persicae oral test; settings: 120 h
How it was run: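 Aphids of mixed population ingest the compound preparation by sucking through a parafilm sheet stretched over wells holding test solution plus IPL41 insect medium (33%+15% sugar). Kill rate in percent is determined five days later.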

[2] = system: green peach aphid (Myzus persicae); assay: Myzus persicae spray test; settings: foliar, 120 h, after 5 days, Chinese cabbage leaf disks
Procedure: Solvent: 78.0 parts by weight acetone • 1.5 parts by weight dimethylformamide
(§1) Emulsifier: alkylarylpolyglycol ether
(§2) To produce a suitable preparation of active compound, 1 part by weight of active compound is mixed with the stated amount of solvents and is diluted with water, containing an emulsifier concentration of 1000 ppm, to the desired concentration. Further test concentrations are prepared by dilution with emulsifier containing water.
Chinese cabbage (Brassica pekinensis) leaf disks infected with all instars of the green peach aphid (Myzus persicae), are sprayed with a preparation of the active ingredient of the desired concentration.
After 5 days mortality in % is determined. 100% means all aphids have been killed and 0% means none of the aphids have been killed.

[3] = system: larvae of the banded cucumber beetle (Diabrotica balteata); assay: Diabrotica balteata spray test; settings: 168 h, after 7 days, wheat seeds, read-out: efficacy (seedlings grown up); for pest or weed control at 32 µg/disc, 100 g/ha: 100 g/ha (=32 μg/well)
How it was run: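 Efficacy (%) read at day 7: 100% means seedlings grew like untreated, uninfested controls; 0% means no seedlings grew. Wheat seeds germinated 1 day on agar, sprayed with emulsified compound solution (1000 ppm emulsifier in water), then each well infested with 10-20 larvae.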

[4] = system: larvae of the southern green stink bug (Nezara viridula); assay: Nezara viridula spray test; settings: in Hordeum vulgare, 96 h
How it was run: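 Percent mortality of southern green stink bug larvae read 4 days after spraying infested Hordeum vulgare. Test solutions: compound in acetone plus dimethylformamide, diluted with emulsifier-containing water (1000 ppm alkylarylpolyglycol ether).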

[5] = system: adult brown dog ticks (Rhipicephalus sanguineus); assay: Rhipicephalus sanguineus in-vitro contact test with adult brown dog ticks; settings: after 48 hours, read-out: efficacy (ticks dead or moribund); for pest or weed control at 1 µg/cm2, 100 g/ha: 1 μg/cm^2 (=100 g/ha); for pest or weed control at 5 µg/cm2, 500 g/ha: 5 μg/cm^2 (=500 g/ha)
How it was run: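 Efficacy is the percentage of adult ticks dead or moribund, meaning immotile or uncoordinated and unable to escape 45-50° C. heat within 5 min. Read 48 h after 5-10 ticks were enclosed at room temperature in acetone-coated glass tubes. Dose 5 μg/cm^2, from a 900 ppm coating solution.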

[6] = system: fall armyworm larvae (Spodoptera frugiperda); assay: Spodoptera frugiperda spray test (maize leaf sections); settings: 168 h
How it was run: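 Percent kill of Spodoptera frugiperda larvae was recorded 7 days after infesting dried, treated maize leaf sections. Spray solutions were made from an acetone/DMF compound preparation diluted with 1000 ppm emulsifier-containing water.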

[7] = system: adult cat fleas (Ctenocephalides felis); assay: Ctenocephalides felis in-vitro contact test, adult cat flea; settings: 5 μg/cm^2 (=500 g/ha), after 48 hours, read-out: efficacy (fleas dead or moribund)
Procedure: 9 mg compound is solved in 1 mL acetone and diluted with acetone to the desired concentration. 250 μL of the test solution is filled in 25 mL glass test tubes and homogeneously distributed on the inner walls by rotation and tilting on a shaking device (2 h at 30 rpm). With a compound concentration of 900 ppm, an inner surface of 44.7 cm^2 and a homogeneous distribution, a dose of 5 μg/cm^2 is achieved.
After the solvent has evaporated, each test tube is filled with 5-10 adult cat fleas (Ctenocephalides felis), closed with a perforated lid and incubated in a lying position at room temperature and relative humidity. After 48 hours efficacy is determined. The fleas are patted on the ground of the tubes and are incubated on a heating plate at 45-50° C. for at most 5 minutes. Immotile or uncoordinated moving fleas, which are not able to escape the heat by climbing upwards, are marked as dead or moribund.
An efficacy of 100% means all fleas are dead or moribund; 0% means no fleas are dead or moribund.

[8] = system: cattle tick larvae (Rhipicephalus microplus), strain Parkhurst, resistant against synthetic pyrethroids; assay: Rhipicephalus (Boophilus) microplus in-vitro contact test, larval cattle tick; settings: 5 μg/cm^2 (=500 g/ha), after 48 hours, read-out: efficacy (larvae dead or moribund)
How it was run: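 Efficacy, 100% meaning all larvae dead or moribund, was judged at 48 h from loss of negative geotactic climbing. Larvae of the Parkhurst strain, 20–50 per tube, were exposed at 27° C and 85% humidity to acetone-coated tube surfaces; 900 ppm corresponded to 5 μg/cm^2.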

[9] = system: adult unfed cat fleas (Ctenocephalides felis); assay: Ctenocephalides felis oral test; settings: 48 h, 100 ppm in cattle blood, after 2 days
How it was run: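 Percent flea mortality recorded at 2 days. Compound was dissolved in dimethyl sulfoxide and diluted into cattle blood, which ~20 unfed adult cat fleas ingested through parafilm from a 37°C-heated chamber, their own chamber kept at room temperature.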

[10] = system: adult engorged female ticks (Rhipicephalus microplus); assay: Rhipicephalus (Boophilus) microplus injection test; settings: 168 h, 4 μg/animal, egg deposition after 7 days, read-out: efficacy (infertile eggs)
How it was run: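 Efficacy is the share of infertile eggs: 100% means none are fertile, 0% means all are fertile. Egg deposition was checked 7 days after injecting 1 μL of DMSO-diluted compound into the abdomen of five engorged female R. microplus, with doubtful eggs kept about 42 days to hatching. The stock was 10 mg in 0.5 mL DMSO.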

[11] = system: brown planthopper (Nilaparvata lugens); assay: Nilaparvata lugens spray test; settings: in Oryza sativa, 96 h
Procedure: Solvent: 78.0 parts by weight of acetone • • 1.5 parts by weight of dimethylformamide
as §1, §2
Rice plants (Oryza sativa) are sprayed with a preparation of the active ingredient of the desired concentration and the plants are infested with the brown planthopper (Nilaparvata lugens).
After 4 days mortality in % is determined. 100% means all planthoppers have been killed and 0% means none of the planthoppers have been killed.

Compound | mortality at 4 ppm [1] [%] | mortality at 500 g/ha [2] [%] | pest or weed control at 160 µg/disc, 500 g/ha ([3]; 500 g/ha (=160 μg/well)) [%] | mortality at 100 g/ha [4] [%] | mortality at 500 g/ha [4] [%] | pest or weed control at 1 µg/cm2, 100 g/ha [5] [%] | pest or weed control at 5 µg/cm2, 500 g/ha [5] [%] | mortality at 100 g/ha [6] [%] | pest or weed control at 5 µg/cm2 [7] [%] | mortality at 100 g/ha [2] [%] | pest or weed control at 5 µg/cm2 [8] [%] | mortality at 100 ppm [9] [%] | pest or weed control at 0.004 mg [10] [%] | pest or weed control at 32 µg/disc, 100 g/ha [3] [%] | mortality at 500 g/ha [11] [%]
CC(NC(=O)c1cc(Cl)cc(S(C)(=O)=O)c1)c1nc([S+](C)[O-])nn1-c1ccc(Cl)cn1 (racemic) [I-061, 3-chloro-N-[1-[2-(5-chloro-2-pyridyl)-5-methylsulfinyl-1,2,4-triazol-3-yl]ethyl]-5-methylsulfonyl-benzamide] | 100 | 90 | 100 | 100 | 100 |  |  |  |  |  |  |  |  |  | 
CC(NC(=O)c1cc(C(F)(F)F)cc(C(F)(F)F)c1)c1nc(N)nn1-c1ncccn1 (stereo not drawn) [I-007] | 100 |  |  | 100 |  | 100 | 100 | 100 | 100 | 90 | 100 | 100 | 100 | 100 | 
CC(NC(=O)c1cc(Cl)cc(OC(F)(F)F)c1)c1nc(N)nn1-c1ncccn1 (stereo not drawn) [I-090] |  |  |  |  |  |  |  | 100 | 90 | 90 | 90 | 100 | 100 | 100 | 
CC(NC(=O)c1cc(Br)cc(OC(F)(F)F)c1)c1nc(N)nn1-c1ncccn1 (stereo not drawn) [I-095] | 100 | 90 |  |  | 90 |  |  |  | 90 |  | 100 |  |  | 100 | 
CNc1nc([C@H](C)NC(=O)c2cc(Br)cc(Br)c2)n(-c2ncccn2)n1 [I-131] |  |  |  |  | 100 | 100 | 100 | 100 | 100 |  | 100 |  |  | 100 | 90
C[C@H](NC(=O)c1cc(C(F)(F)F)cc(C(F)(F)F)c1)c1nc(N(C)C)nn1-c1ncccn1 [I-141, N-[(1S)-1-[5-(dimethylamino)-2-pyrimidin-2-yl-1,2,4-triazol-3-yl]ethyl]-3,5-bis(trifluoromethyl)benzamide] |  |  |  |  | 100 | 80 | 100 | 100 | 100 |  | 100 |  |  | 100 | 100
C[C@H](NC(=O)c1cc(Cl)cc(S(C)(=O)=O)c1)c1nc(N)nn1-c1ccc(C#N)cn1 [I-148, N-[(1S)-1-[5-amino-2-(5-cyano-2-pyridyl)-1,2,4-triazol-3-yl]ethyl]-3-chloro-5-methylsulfonyl-benzamide] |  |  |  |  | 100 |  |  | 100 |  | 90 | 90 |  |  | 100 | 100
CON(C)c1nc([C@H](C)NC(=O)c2cc(C(F)(F)F)cc(S(C)(=O)=O)c2)n(-c2ncccn2)n1 [I-153] |  |  |  |  | 100 |  |  |  |  | 90 |  |  |  |  | 100
CON(C)c1nc([C@H](C)NC(=O)c2cc(Cl)cc(C(C)(C)C#N)c2)n(-c2ncccn2)n1 [I-163] |  |  |  |  | 100 |  |  | 100 |  | 100 |  |  |  | 100 | 100
CC(NC(=O)c1cc(C(F)(F)F)cc(C(F)(F)F)c1)c1nc(N(C)C)nn1-c1ncc(Cl)cn1 (stereo not drawn) [I-165] |  |  |  |  | 100 |  |  | 100 |  | 90 |  |  |  | 100 | 100
C[C@H](NC(=O)c1cc(Cl)cc(C(C)(C)C#N)c1)c1nc(N(C)C)nn1-c1ncc(Cl)cn1 [I-178] |  |  |  |  | 100 |  |  | 100 |  | 90 |  |  |  | 100 | 100
C[C@H](NC(=O)c1cc(Cl)cc(S(C)(=O)=O)c1)c1nc(N(C)C)nn1-c1ncc(Cl)cn1 [I-179] |  |  |  |  | 100 |  |  | 100 |  | 90 |  |  |  | 100 | 100
CNc1nc([C@H](C)NC(=O)c2cc(OC(F)(F)F)cc(S(=O)(=O)C3CC3)c2)n(-c2ncccn2)n1 [I-184] |  |  |  |  | 100 |  |  |  |  | 90 |  |  |  | 100 | 100
C[C@H](NC(=O)c1cc(OC(F)(F)F)cc(S(=O)(=O)C2CC2)c1)c1nc(N)nn1-c1ncccn1 [I-187] |  |  |  |  | 100 |  |  |  |  | 90 |  |  |  | 100 | 100
CC(NC(=O)c1cc(OC(F)(F)F)cc(S(C)(=O)=O)c1)c1nc(N(C)C)nn1-c1ncc(Cl)cn1 (stereo not drawn) [I-192] |  |  |  |  | 100 |  |  | 100 |  | 90 |  |  |  | 100 | 100
CNc1nc([C@H](C)NC(=O)c2cc(Cl)cc(S(=O)(=O)C(F)F)c2)n(-c2ncccn2)n1 [I-202] |  |  |  |  | 100 |  |  | 100 |  | 90 |  |  |  | 100 | 100
C[C@H](NC(=O)c1cc(OC(F)(F)F)cc(S(=O)(=O)C2CC2)c1)c1nc(N)nn1-c1ccc(C#N)cn1 [I-205] |  |  |  |  |  |  |  | 100 |  | 90 |  |  |  |  | 
C[C@H](NC(=O)c1cc(OC(F)(F)F)cc(C2CC2)c1)c1nc(N)nn1-c1ncccn1 [I-216] |  |  |  |  |  |  |  | 100 |  | 90 |  |  |  |  | 
